Measured values: patent US20260132547A1, “NOVEL PHAGE LIBRARIES OF BICYCLIC PEPTIDES” (priority 2024, published 2026)
“Also recorded” adds a separate entry of the source. Numbered stars: 1 amine (or outer) side, 2 acyl side, 3 side chain; on linkers, the order of the positions; unused ones are H or OH. Bridge positions count the residues as written; N and C are the ends. Square brackets hold non-standard residues; d marks the D form. Peptide text beside a SMILES is read from it. X1 = O=C(c1cc(/C(=N/O)[*:2])cc(/C(=N/O)[*:3])c1)[*:1]; d(aIle) = CC[C@H](C)[C@@H](N)C(=O)O

Legend:
[1] = Hydrolysis of OSu ester in aqueous acetone/PBS, monitored by 1H NMR; format: physicochemical
Description: FIG. 15. Hydrolysis of OSu ester (S18) in 80% acetone/PBS (pH 7.4) monitored by ^1H NMR.
FIG. 16. Hydrolysis of OSu ester (S18) in 50% acetone/PBS (pH 7.4) monitored by ^1H NMR.

[2] = Stability of bicyclic peptide in PBS at varied pH, monitored by LC-MS; format: physicochemical; details: 200 μM in PBS, pH 5.1, pH 7.4 and pH 9.2, over 16 days
Procedure: FIGS. 37a-37c. FIG. 37a. LC-MS (280 nm) trace of the bicyclic peptide 5h in PBS pH 5.1 over 16 days. FIG. 37b. LC-MS (280 nm) trace of the bicyclic peptide 5h in PBS pH 7.4 over 16 days. FIG. 37c. LC-MS (280 nm) trace of the bicyclic peptide 5h in PBS pH 9.21 over 16 days.
The bicyclic peptide 5h was prepared according to above mentioned procedure and purified by RP-HPLC. The solution of bicyclic peptide 5h (200 μM) in PBS was incubated at pH 5.1, pH 7.4, and pH 9.2, respectively. The sample was analyzed by LC-MS at different time points over 16 days (Method C).

[3] = Stability of bicyclic peptide in DMSO-d6/PBS/D2O, monitored by 1H NMR; format: physicochemical; details: 0.96 mM in DMSO-d6/PBS (pH 5.9)/D2O (1/8/1), 1 week
Procedure: FIG. 38. Stability studies of 5h (0.96 mM) in DMSO-d6/PBS (pH 5.9)/D2O (1/8/1) monitored by ^1H NMR.

[4] = biological target: SARS-CoV-2 Spike RBD (SARS-CoV-2), P0DTC2; assay: ELISA: plate coated with 100 nM SARS-CoV-2 Spike RBD, biotinylated bicyclic peptide titrated, streptavidin-HRP/TMB, A450; curve fitting

For `O=C(ON1C(=O)CCC1=O)c1ccc(/C=N/O)cc1` [S18], the “Percentage of S20 (%)” value ([1]; acetone-d6/PBS/D2O (5/4/1), 20 min) was 12%, the “Percentage of S20 (%)” value ([1]; acetone-d6/PBS/D2O (5/4/1), 1 h) was 26% and the “Percentage of S20 (%)” value ([1]; acetone-d6/PBS/D2O (5/4/1), 2 h) was 33%. The “Percentage of S20 (%)” value ([1]; acetone-d6/PBS/D2O (8/1/1), 20 min) was “trace”, the “Percentage of S20 (%)” value ([1]; acetone-d6/PBS/D2O (8/1/1), 1 h) was “trace” and the “Percentage of S20 (%)” value ([1]; acetone-d6/PBS/D2O (8/1/1), 20 h) was 4%.

With `CC[C@H](C)[C@H]1NC(=O)[C@H](CC(C)C)NC(=O)[C@H](C)NC(=O)c2cc3cc(c2)/C(=N/O)SC[C@H](NC(=O)CNC1=O)C(=O)N1CCC[C@H]1C(=O)N[C@@H](Cc1ccccc1)C(=O)N1CCC[C@H]1C(=O)N[C@@H](C)C(=O)N[C@@H](CCCNC(=N)N)C(=O)N[C@@H](Cc1c[nH]c2ccccc12)C(=O)N[C@H](C(N)=O)CS/C3=N\O` [5h] (AL[d(aIle)]GCPFPARWC-NH2; linker N-5-12 via X1) the “Chemical stability in PBS (LC-MS profile)” value [2] was “remained intact; also recorded: no change of the LC-MS profile” and the “Chemical stability (1H NMR profile)” value [3] was “no change of NMR profile”.

With AISECNHIAEWMC (modifications not checked) [bicyclized NP10 (…)] the Kd [4] was 400 nM.

In the case of AIDSCRYNHGWQC (modifications not checked) [bicyclized NP8 (…)], the Kd [4] is reported as 3000 nM.
